This assay has as its target T1, Activated human p38α (Homo sapiens, UniProt Q16539).
T1 construct: purchased Upstate Biotechnology Inc. 14-251
Kind of assay: p38MAP kinase inhibition test. Type of assay: biochemical. Particulars: at a concentration of 1 μmol/L; substrate myelin basic protein, ATP 20 μmol/L, [γ-32P]ATP; read-out: enzyme inhibitory activity. The method, boiled down:
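Radiometric kinase assay with myelin basic protein (20 μg/assay) as substrate, 20 μmol/L ATP plus [γ-32P]ATP, MOPS pH 7.2 with MgCl2 18.75 mmol/L. Reaction run 15 min at 30° C., stopped with phosphoric acid; 32P-MBP captured on phosphocellulose and counted by scintillation.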
T1 sequence (Q16539 whole entry): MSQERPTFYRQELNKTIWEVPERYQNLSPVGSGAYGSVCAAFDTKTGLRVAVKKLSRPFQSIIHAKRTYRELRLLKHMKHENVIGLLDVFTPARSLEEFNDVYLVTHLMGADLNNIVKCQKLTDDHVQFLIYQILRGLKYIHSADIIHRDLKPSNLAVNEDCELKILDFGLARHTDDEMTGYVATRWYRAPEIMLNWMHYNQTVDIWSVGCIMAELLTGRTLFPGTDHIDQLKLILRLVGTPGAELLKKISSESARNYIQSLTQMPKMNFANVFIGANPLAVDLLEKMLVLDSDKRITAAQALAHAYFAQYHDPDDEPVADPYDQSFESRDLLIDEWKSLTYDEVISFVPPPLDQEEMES
On to `O=C(c1ccccc1)c1cc2cnc(NC3CCOCC3)nc2cc1O` [Compound 138, 6-Benzoyl-7-hydroxy-2-(4-tetrahydropyranylamino)quinazoline], for which the inhibition at 1 µM was at least 50%.
As for `N[C@H]1CC[C@H](Nc2ncc3cc(C(=O)c4ccccc4)c(O)cc3n2)CC1` [Compound 139, 2-(trans-4-Aminocyclohexylamino)-6-benzoyl-7-hydroxyquinazoline], the figure is at least 50%; as for `Cc1cccc(C)c1Nc1ncc2cc(C(=O)c3ccccc3)c(O)cc2n1` [Compound 140, 6-Benzoyl-2-(2,6-dimethylanilino)-7-hydroxyquinazoline], at least 50%.
As for `O=C(c1ccccc1)c1cc2cnc(Nc3c(Cl)cccc3Cl)nc2cc1O` [Compound 141, 6-Benzoyl-2-(2,6-dichloroanilino)-7-hydroxyquinazoline], the figure is at least 50%.
As for `CCS(=O)(=O)N1CCC(Nc2ncc3cc(-c4ccccc4Cl)c(OC)cc3n2)CC1` [Compound 142, 6-(2-Chlorophenyl)-2-[1-(ethylsulfonyl)piperidin-4-ylamino]-7-methoxyquinazoline], the figure is at least 50%.
On to `COc1cc2nc(NC3CCN(S(=O)(=O)C(C)C)CC3)ncc2cc1-c1ccccc1Cl` [Compound 143, 6-(2-Chlorophenyl)-2-[1-(isopropylsulfonyl)piperidin-4-ylamino]-7-methoxyquinazoline], for which the inhibition at 1 µM is at least 50%.
As for `COc1cc2nc(NCC3CCN(S(C)(=O)=O)CC3)ncc2cc1-c1ccccc1Cl` [Compound 144, 6-(2-Chlorophenyl)-7-methoxy-2-[1-(methylsulfonyl)piperidin-4-ylmethylamino]quinazoline], the figure is at least 50%; as for `COc1cc2nc(NC3CCN(S(C)(=O)=O)C3)ncc2cc1-c1ccccc1Cl` (stereo not shown) [Compound 145, 6-(2-Chlorophenyl)-7-methoxy-2-[1-(methylsulfonyl)pyrrolidin-3-ylamino]quinazoline], at least 50%.
As for `COc1cc2nc(N[C@H]3CC[C@H](NS(C)(=O)=O)CC3)ncc2cc1-c1ccccc1Cl` [Compound 146, 6-(2-Chlorophenyl)-7-methoxy-2-[trans-4-(methylsulfonylamino)cyclohexylamino]quinazoline], the figure is at least 50%.
On to `CCS(=O)(=O)N[C@H]1CC[C@H](Nc2ncc3cc(-c4ccccc4Cl)c(OC)cc3n2)CC1` [Compound 147, 6-(2-Chlorophenyl)-2-[trans-4-(ethylsulfonylamino)cyclohexylamino]-7-methoxyquinazoline], for which the inhibition at 1 µM is at least 50%.
As for `CCCS(=O)(=O)N1CCC(Nc2ncc3cc(-c4ccccc4Cl)c(OC)cc3n2)CC1` [Compound 148, 6-(2-Chlorophenyl)-7-methoxy-2-[1-(1-propylsulfonyl)piperidin-4-ylamino]quinazoline], the figure is at least 50%; as for `CCOC(=O)N1CCC(Nc2ncc3cc(-c4ccccc4Cl)c(OC)cc3n2)CC1` [Compound 149, 6-(2-Chlorophenyl)-2-[1-(ethoxycarbonyl)piperidin-4-ylamino]-7-methoxyquinazoline], at least 50%.
As for `COc1cc2nc(NCC(C)C)ncc2cc1-c1ccccc1Cl` [Compound 151, 6-(2-Chlorophenyl)-2-isobutylamino-7-methoxyquinazoline], the figure is at least 50%.
`COc1cc2nc(NC3CCNCC3)ncc2cc1-c1ccccc1Cl` [Compound 152, 6-(2-Chlorophenyl)-7-methoxy-2-(piperidin-4-ylamino)quinazoline]: the inhibition at 1 µM was at least 50%.
As for `CC[C@H](C)Nc1ncc2cc(-c3ccccc3Cl)c(OC)cc2n1` [Compound 155, (S)-2-(sec-Butylamino)-6-(2-chlorophenyl)-7-methoxyquinazoline], the figure is at least 50%.
As for `NC(=O)N1CCC(Nc2ncc3cc(-c4ccccc4Cl)c(O)cc3n2)CC1` [Compound 157, 2-(1-Carbamoylpiperidin-4-ylamino)-6-(2-chlorophenyl)-7-hydroxyquinazoline], the figure is at least 50%.

Source of the values: patent US7906522B2, “2-aminoquinazoline derivatives” (Kyowa Hakko Kirin Co., Ltd, priority 2005, dated 2011).
